This is an account of results in US10870647B2, “Imidazopyridine derivative, method for preparing same, and pharmaceutical composition containing same as active ingredient for preventing or treating cancer” (DAEGU-GYEONGBUK MEDICAL INNOVATION FOUNDATION, priority 2016, dated 2020).

The target of assay [1] is T1, scanMAX Kinase assay panel (Homo sapiens, UniProt O95835).
T1 construct: purchased DiscoverX
T1 sequence (O95835 1-1130): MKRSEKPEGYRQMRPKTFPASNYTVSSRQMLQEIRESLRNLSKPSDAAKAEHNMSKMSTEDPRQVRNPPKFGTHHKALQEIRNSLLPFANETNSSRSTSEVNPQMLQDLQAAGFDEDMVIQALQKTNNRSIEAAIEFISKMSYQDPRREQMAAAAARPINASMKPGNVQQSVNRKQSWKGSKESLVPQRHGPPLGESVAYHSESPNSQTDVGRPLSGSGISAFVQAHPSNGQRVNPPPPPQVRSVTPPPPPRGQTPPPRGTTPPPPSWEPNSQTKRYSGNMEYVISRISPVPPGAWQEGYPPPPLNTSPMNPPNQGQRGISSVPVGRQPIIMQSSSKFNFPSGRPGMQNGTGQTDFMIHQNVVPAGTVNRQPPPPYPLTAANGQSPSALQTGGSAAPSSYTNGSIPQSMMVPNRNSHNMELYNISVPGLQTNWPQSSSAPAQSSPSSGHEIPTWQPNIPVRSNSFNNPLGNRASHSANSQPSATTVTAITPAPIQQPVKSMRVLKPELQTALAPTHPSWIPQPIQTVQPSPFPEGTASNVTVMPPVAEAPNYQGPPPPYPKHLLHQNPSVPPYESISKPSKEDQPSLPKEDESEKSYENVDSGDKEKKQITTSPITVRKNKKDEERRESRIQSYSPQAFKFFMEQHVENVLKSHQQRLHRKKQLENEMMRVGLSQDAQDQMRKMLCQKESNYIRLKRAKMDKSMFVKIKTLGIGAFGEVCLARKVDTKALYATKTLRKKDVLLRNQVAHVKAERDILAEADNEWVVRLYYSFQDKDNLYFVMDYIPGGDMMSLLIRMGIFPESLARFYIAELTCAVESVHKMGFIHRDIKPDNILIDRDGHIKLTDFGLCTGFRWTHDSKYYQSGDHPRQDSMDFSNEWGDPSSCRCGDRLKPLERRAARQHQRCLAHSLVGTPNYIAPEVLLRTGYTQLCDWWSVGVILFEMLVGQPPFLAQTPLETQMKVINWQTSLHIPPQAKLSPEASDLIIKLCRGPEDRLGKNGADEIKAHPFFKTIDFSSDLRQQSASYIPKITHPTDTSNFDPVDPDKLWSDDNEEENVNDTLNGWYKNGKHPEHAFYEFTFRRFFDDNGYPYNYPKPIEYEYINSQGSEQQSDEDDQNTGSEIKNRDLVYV
Nature of the assay: Kinase selectivity, scanMAX Kinase assay panel (DiscoverX), % control at 1 uM. The format is binding. The following applies: LATS1; 1 uM; read-out: Percent Control (%). The method in brief:
(§1)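 Binding across the scanMAX kinase panel was tested at 1 uM compound. % control = (compound − positive control)/(negative control − positive control) × 100; below 35 counted as active.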

Assay [2] deals with T2, scanMAX Kinase assay panel (Homo sapiens, UniProt O75747).
T2 construct: purchased DiscoverX
T2 sequence (O75747 1-1486): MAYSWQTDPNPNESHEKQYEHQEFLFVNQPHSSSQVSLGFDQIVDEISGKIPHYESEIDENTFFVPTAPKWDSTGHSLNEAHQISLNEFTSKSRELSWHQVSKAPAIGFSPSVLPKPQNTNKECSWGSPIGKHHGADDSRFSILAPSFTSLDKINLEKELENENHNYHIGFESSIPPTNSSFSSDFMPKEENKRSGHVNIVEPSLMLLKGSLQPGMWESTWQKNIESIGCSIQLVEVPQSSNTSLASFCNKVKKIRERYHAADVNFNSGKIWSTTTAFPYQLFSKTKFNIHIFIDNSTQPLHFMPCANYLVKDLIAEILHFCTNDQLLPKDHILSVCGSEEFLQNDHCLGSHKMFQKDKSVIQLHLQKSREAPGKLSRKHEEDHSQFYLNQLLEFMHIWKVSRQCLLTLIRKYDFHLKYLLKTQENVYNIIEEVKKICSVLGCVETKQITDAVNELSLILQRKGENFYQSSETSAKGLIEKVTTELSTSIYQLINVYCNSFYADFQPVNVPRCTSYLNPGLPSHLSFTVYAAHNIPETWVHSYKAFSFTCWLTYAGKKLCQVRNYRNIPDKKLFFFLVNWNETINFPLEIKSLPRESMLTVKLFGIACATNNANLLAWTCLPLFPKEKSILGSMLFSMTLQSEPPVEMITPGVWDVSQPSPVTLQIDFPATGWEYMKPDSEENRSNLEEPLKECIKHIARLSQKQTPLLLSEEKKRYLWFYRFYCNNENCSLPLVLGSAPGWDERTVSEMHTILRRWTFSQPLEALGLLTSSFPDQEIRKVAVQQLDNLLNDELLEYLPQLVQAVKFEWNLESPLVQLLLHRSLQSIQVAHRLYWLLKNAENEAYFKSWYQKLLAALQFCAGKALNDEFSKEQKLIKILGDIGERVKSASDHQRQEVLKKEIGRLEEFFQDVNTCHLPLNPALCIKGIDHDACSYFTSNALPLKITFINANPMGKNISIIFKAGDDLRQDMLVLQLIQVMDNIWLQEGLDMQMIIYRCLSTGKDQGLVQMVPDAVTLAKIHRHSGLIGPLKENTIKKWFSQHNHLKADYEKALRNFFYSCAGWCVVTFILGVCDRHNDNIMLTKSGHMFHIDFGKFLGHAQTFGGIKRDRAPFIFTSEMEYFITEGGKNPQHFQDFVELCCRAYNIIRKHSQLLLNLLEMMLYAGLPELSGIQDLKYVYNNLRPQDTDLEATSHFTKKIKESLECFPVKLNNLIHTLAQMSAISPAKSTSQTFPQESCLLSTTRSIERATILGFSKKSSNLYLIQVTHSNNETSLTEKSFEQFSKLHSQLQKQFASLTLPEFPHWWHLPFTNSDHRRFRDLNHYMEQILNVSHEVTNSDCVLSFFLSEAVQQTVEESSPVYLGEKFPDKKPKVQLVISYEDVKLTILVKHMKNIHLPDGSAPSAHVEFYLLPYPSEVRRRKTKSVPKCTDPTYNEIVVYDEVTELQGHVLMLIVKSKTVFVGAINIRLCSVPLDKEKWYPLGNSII
The assay is described as above. It is filed as binding. To be noted: PIK3C2G; 1 uM; read-out: Percent Control (%). The method, boiled down: as §1

In the case of `Cc1ccc(C(=O)Nc2ccc(CN3CCN(C)CC3)c(C(F)(F)F)c2)cc1C#Cc1cnc2c(Nc3cnn(C)c3)cccn12` [Example 1, 4-methyl-3-((8-((1-methyl-1H-pyrazol-4-yl)amino)imidazo[1,2-a]pyridin-3-yl)ethynyl)-N-(4-((4-methylpiperazin-1-yl)methyl)-3-(trifluoromethyl)phenyl)benzamide], the remaining binding at 1 µM in assay [1] turned out to be 40%; in assay [2], 75%.

In the case of `Cc1cn(-c2cc(NC(=O)c3ccc(C)c(C#Cc4cnc5c(Nc6cnn(C)c6)cccn45)c3)cc(C(F)(F)F)c2)cn1` [Example 12, 4-methyl-N-(3-(4-methyl-1H-imidazol-1-yl)-5-(trifluoromethyl)phenyl)-3-((8-((1-methyl-1H-pyrazol-4-yl)amino)imidazo[1,2-a]pyridin-3-yl)ethynyl)benzamide], the remaining binding at 1 µM amounted to 96% in assay [1] and 100% in assay [2].

For `Cc1ccc(NC(=O)C2(C(=O)Nc3ccc(F)cc3)CC2)cc1C#Cc1cnc2c(Nc3cnn(C(C)C)c3)cccn12` [Example 78], the remaining binding at 1 µM in assay [1] turned out to be 82%; in assay [2], 100%.
